Changes are numbered by the printed parent chain. Where a SMILES comes first, the peptide text is derived from it.
What was measured:
[1] = biological target: T1, hTAS1R2 + hTAS1R3 V621L^2.58 (Homo sapiens, UniProt Q7RTX0+Q8TE23, V621L); assay: Calcium response (FLIPR), hTAS1R3 mutant coexpressed with hTAS1R2; format: cell-based; details: for receptor activation: mutant V621L^2.58; for EC50: variant V621L^2.58, n.f. = no response to any tested sweetener
T1 construct: expressed in transfected cells; host or cells: HEK293T cells stably expressing G16Gust44
T1 sequence (Q8TE23 20-839): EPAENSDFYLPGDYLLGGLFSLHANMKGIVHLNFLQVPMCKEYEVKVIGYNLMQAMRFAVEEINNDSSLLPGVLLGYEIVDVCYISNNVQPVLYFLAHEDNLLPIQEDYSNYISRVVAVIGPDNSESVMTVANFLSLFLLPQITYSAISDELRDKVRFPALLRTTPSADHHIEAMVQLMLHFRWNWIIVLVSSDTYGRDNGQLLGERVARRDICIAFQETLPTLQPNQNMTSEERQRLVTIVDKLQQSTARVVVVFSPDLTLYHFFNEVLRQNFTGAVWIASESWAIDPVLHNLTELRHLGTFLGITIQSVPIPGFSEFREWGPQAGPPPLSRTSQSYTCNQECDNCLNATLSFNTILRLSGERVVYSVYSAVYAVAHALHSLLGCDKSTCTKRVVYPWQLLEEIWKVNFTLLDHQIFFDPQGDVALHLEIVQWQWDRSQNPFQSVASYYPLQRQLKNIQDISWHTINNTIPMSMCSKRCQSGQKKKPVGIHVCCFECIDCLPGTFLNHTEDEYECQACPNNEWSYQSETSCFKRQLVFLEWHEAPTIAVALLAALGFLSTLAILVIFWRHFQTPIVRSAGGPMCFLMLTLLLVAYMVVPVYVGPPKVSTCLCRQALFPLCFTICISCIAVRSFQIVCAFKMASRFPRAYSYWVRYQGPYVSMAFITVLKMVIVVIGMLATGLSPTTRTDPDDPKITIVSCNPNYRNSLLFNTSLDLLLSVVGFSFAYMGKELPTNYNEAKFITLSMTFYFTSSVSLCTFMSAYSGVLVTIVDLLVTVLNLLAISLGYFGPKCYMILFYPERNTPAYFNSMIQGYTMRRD
T1 sequence (Q7RTX0 21-852 V621L): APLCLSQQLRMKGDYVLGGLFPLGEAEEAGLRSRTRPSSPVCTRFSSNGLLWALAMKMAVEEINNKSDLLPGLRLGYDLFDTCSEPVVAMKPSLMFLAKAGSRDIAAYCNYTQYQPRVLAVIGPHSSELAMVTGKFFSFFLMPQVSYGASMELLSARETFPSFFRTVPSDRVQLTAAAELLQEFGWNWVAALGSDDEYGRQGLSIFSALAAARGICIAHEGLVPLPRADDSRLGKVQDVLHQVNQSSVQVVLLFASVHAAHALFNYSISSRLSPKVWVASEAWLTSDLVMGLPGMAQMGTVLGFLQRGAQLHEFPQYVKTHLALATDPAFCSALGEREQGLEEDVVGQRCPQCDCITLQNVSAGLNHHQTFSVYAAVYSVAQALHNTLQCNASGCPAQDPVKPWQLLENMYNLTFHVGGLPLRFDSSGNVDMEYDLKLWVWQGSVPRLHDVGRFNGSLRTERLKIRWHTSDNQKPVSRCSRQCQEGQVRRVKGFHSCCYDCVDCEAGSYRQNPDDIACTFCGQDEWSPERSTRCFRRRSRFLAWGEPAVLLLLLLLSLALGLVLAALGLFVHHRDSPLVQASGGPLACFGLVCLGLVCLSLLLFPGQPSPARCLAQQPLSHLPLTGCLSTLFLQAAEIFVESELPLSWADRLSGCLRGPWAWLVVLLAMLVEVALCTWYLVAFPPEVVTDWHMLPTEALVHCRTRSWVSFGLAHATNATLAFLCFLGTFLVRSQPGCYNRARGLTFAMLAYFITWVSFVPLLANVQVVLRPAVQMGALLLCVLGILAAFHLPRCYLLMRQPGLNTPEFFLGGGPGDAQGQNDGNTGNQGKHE
Experimental: (§1) The cDNAs for TAS1Rs tagged at the C-terminus with the herpes simplex virus glycoprotein D (HSV) were transiently transfected into HEK293T cells stably expressing the chimeric G-protein subunit G16Gust44 [44] using Lipofectamine 2000 (Invitrogen, Carlsbad, CA) according to the manufacturer's protocol. 3–4 hours after transfection, DMEM was replaced by low-glucose DMEM supplemented with GlutaMAX and 10% dialyzed FBS (Invitrogen, Carlsbad, CA). 24 h post transfection, cells were loaded for 1 h with the calcium sensitive dye Fluo4-AM (2 μg/ml in DMEM, Molecular Probes, Carlsbad, CA). […] We monitored calcium mobilization following receptor stimulation with sweet tastants by an automated fluorometric imaging plate reader (FLIPR, Molecular Devices, Sunnyvale, CA). Compounds used as stimuli (Sigma-Aldrich, St. Louis, MO; Merck, Whitehouse Station, NJ) were dissolved in C1 solution. All data were collected from at least three independent experiments carried out in duplicate. The obtained calcium signals were corrected for the response of mock transfected cells and normalized to the fluorescence of cells prior to the application of the stimulus using ΔF/F = (F-F0)/F0.

[2] = biological target: T2, hTAS1R2 + hTAS1R3 W775A^6.48 (Homo sapiens, UniProt Q7RTX0+Q8TE23, W775A); assay: as above; format: cell-based; details: for EC50 / Emax: variant W775A^6.48; for EC50: (>) EC50 not calculable because saturation is not reached; for Emax: read-out: maximal signal (% of wt)
T2 construct: expressed in transfected cells; host or cells: HEK293T cells stably expressing G16Gust44
T2 sequence (Q8TE23 20-839): T1 sequence (Q8TE23 20-839)
T2 sequence (Q7RTX0 21-852 W775A): T1 sequence (Q7RTX0 21-852 V621L) with L601V, W755A
Experimental: as §1

| receptor activation [1] | EC50 [1] | EC50 [2] [µM] | Emax [2] [%] | Compound | receptor activation ([2]; mutant W775A^6.48, any tested concentration) |
| --- | --- | --- | --- | --- | --- |
| could not be activated | n.f. | > 3000 | 30 ± 41 | COc1ccc(CCC(=O)c2c(O)cc(O[C@@H]3O[C@H](CO)[C@@H](O)[C@H](O)[C@H]3O[C@@H]3O[C@@H](C)[C@H](O)[C@@H](O)[C@H]3O)cc2O)cc1O [NHDC, neohesperidin dihydrochalcone] |  |
| could not be activated |  |  |  | CC1=CC(=O)NS(=O)(=O)O1 [acesulfame K] |  |
| could not be activated | n.f. | 1900 ± 200 | 20 ± 30 | COC(=O)[C@H](Cc1ccccc1)NC(=O)[C@@H](N)CC(=O)O [aspartame] (HELM PEPTIDE1{D.F.[CO[*:1]]}$$$$V2.0) |  |
| could not be activated |  |  |  | O=S(=O)(O)NC1CCCCC1 [cyclamate] | could not be activated at any tested concentration |

Source: article PMC2099433, “The binding site for neohesperidin dihydrochalcone at the human sweet taste receptor” (BMC Structural Biology, 2007)
